Assay [1] concerns Staphylococcus aureus CVCC26003. The assay can be described thus: MIC by mini broth dilution technique (in vitro susceptibility). As to conditions: Staphylococcus aureus CVCC26003; broth dilution; read-out: MIC values Staphylococcus aureus CVCC26003. It is filed as cell-based. The method, then: (§1) in vitro tests of susceptibility of the compounds according to the present disclosure against bacterial strains commonly used in laboratories. In accordance with the Performance Standards for Antimicrobial Disk Susceptibility Tests: Approved Standard published by the US National Committee for Clinical Laboratory Standards, the antibactetial activities of compounds prepared according to examples 5 to 187 were tested. The MICs (minimum inhibitory concentration) of the medicaments prepared according to the examples on the following bacterial strains were measured through mini broth dilution technique. Staphylococcus aureus CVCC26003, Streptococcus equines CVCC556. Actinobacillus pleuropneumoniae CVCC262, Haemophilus parasuis, and Pasteurella multocida CVCC399, which were purchased from the Control Institute of Veterinary Bioproducts and Pharmaceuticals, China. Liquid culture medium: CAMHB. […] Solid culture medium: NINA prepared according to the specification of the final product. The strains were taken out of a regrigerator at −20° C. to be revived, and were spreaded by streaking on the solid culture medium with an inoculating loop. The inoculated culture medium was cultured at 35° C. in a constant temperature incubator for 20 h. Monoclonal antibodies were selected from a well-grown culture plate and streaked on the solid culture medium. The inoculated culture medium was cultured at 35° C. in the constant temperature incubator for 20 h. […] A 96-well plate was used, and 100 μl of DMSO was added into each of wells 2 to 11, and 200 μl of ready-prepared medicament solution was added into the 1st well, 100 μl of the medicament solution was extracted from the 1st well and added into the 2nd well. Double dilution was performed until the 11th well, thereby forming 11 gradients. In this case, compound of parent plate was prepared. 3 μl of double diluted medicament solution was extracted with a 12-channel pipettor and added into wells 1-11 of a new disposable 96-well culture plate. The 12th well thereof is a controll well. For each medicament, there are two adjacent rows which are parallel. The transferred compound plate was reserved for later use. […] The dilution ratio was recorded, and the bacterial liquid for the tests was diluted according to the recorded dilution ratio. Subsequently, the bacterial suspension and the liquid culture medium were diluted in the proportion of 1:200. The diluted solution was reserved for later use.

The test system of assay [2] is Actinobacillus pleuropneumoniae CVCC262. Described as above. The format is cell-based. As to conditions: Actinobacillus pleuropneumoniae CVCC262, broth dilution; for MIC: read-out: MIC values Actinobacillus pleuropneumoniae CVCC262. The method, then: as §1, with “medium:” for “medium: CAMHB.”, “NINA prepared according to the specification of the final product.” left out

The next assay concerns Haemophilus parasuis. Described as above. Particulars: Glaesserella parasuis; Haemophilus parasuis; broth dilution; read-out: MIC values Haemophilus parasuis. The format is cell-based. Here is the method: as §1, with “medium:” for “medium: CAMHB.”, “NINA prepared according to the specification of the final product.” left out
Assay [3] relates to Pasteurella multocida CVCC399. The assay is described as above. The format is cell-based. Particulars: Pasteurella multocida CVCC399; broth dilution; read-out: MIC values Pasteurella multocida CVCC399. Here is the method:
as §1, with “medium:” for “medium: CAMHB.”, “NINA prepared according to the specification of the final product.” left out

The subject of assay [4] is Streptococcus equines CVCC556. Described as above. Particulars: Streptococcus equines CVCC556; broth dilution; read-out: MIC values Streptococcus equines CVCC556. The format is cell-based. Here is the method:
as §1, with “medium:” for “medium: CAMHB.”, “NINA prepared according to the specification of the final product.” left out

For assay [5], the system named is Streptococcus pneumoniae CMCC 31203. Nature of the assay: In vivo antibacterial test, survival of infected BALB/c mice. As to conditions: BALB/c mice infected i.p. with Streptococcus pneumoniae, 5 mg per kg s.c. via neck for 3 consecutive days, deaths recorded until the seventh day; for responders at 5 mg/kg: CMCC31203, sc, 168 h, read-out: Animal survival rate.

The results in this text go back to patent US20160304547A1, “MACROLIDE COMPOUND” (PULIKE BIOLOGICAL ENGINEERING, INC, priority 2013, published 2016).

SMILES strings stand for the structures. In brackets after ≈: the same amount, converted by molar mass.

For the compound `CCNC[C@]1(O)[C@H](C)OC(O[C@@H]2[C@@H](C)[C@@H](O[C@@H]3O[C@H](C)C[C@H](N(C)C)[C@H]3O)[C@](C)(O)C[C@@H](C)NC[C@@H](C)[C@H](O)[C@](C)(O)[C@H](CC)OC(=O)[C@@H]2C)C[C@@]1(C)OC` (stereo partly drawn) [syzx-10, (2R,3S,4R,5S,8R,10R,11R,12S,13S,14R)-13-[(2,6-dideoxy-3-C-methyl-3-O-methyl-4-C-[(ethylamino)methyl]-α-L-ribopyranosyl)oxy]-2-ethyl-3,4,10-trihydroxy-3,5,8,10,12,14-hexamethyl-11-[[3,4,6-trideoxy-3-(dimethylamino)-β-D-xylo-hexopyranosy]oxy]-1-oxa-7-azacycopentadecan-15-one], the minimum inhibitory concentration (MIC) was 0.5 µg/mL (≈ 0.631 µM) in assay [1]; 0.5 µg/mL (≈ 0.631 µM) in assay [2]; 1 µg/mL (≈ 1.26 µM) in the assay on Haemophilus parasuis; at most 0.25 µg/mL in assay [3]; 0.5 µg/mL (≈ 0.631 µM) in assay [4]. Besides, the responders at 5 mg/kg in assay [5] stood at 90%.
In the case of `CC[C@@H]1OC(=O)[C@H](C)[C@H](OC2C[C@@](C)(OC)[C@](O)(CN3CCOCC3)[C@H](C)O2)[C@@H](C)[C@@H](O[C@@H]2O[C@H](C)C[C@H](N(C)C)[C@H]2O)[C@](C)(O)C[C@@H](C)NC[C@@H](C)[C@H](O)[C@]1(C)O` (stereo partly drawn) [syzx-5, (2R,3S,4R,5S,8R,10R,11R,12S,13S,14R)-13-[(2,6-dideoxy-3-C-methyl-3-O-methyl-4-C-[(morpholinyl)methyl]-α-L-ribopyranosyl)oxy]-2-ethyl-3,4,10-trihydroxy-3,5,8,10,12,14-hexamethyl-11-[[3,4,6-trideoxy-3-(dimethylamino)-β-D-xylo-hexopyranosy]oxy]-1-oxa-7-azacyclopentadecan-15-one], the MIC was 0.5 µg/mL (≈ 0.599 µM) in assay [1]; 16 µg/mL (≈ 19.2 µM) in assay [2]; 0.5 µg/mL (≈ 0.599 µM) in the assay with Haemophilus parasuis; 0.5 µg/mL (≈ 0.599 µM) in assay [3]; at most 0.25 µg/mL in assay [4]. In addition, the responders at 5 mg/kg in assay [5] was found to be 70%.
For the compound `CC[C@@H]1OC(=O)[C@H](C)[C@H](OC2C[C@@](C)(OC)[C@](O)(CNCC3CCCCC3)[C@H](C)O2)[C@@H](C)[C@@H](O[C@@H]2O[C@H](C)C[C@H](N(C)C)[C@H]2O)[C@](C)(O)C[C@@H](C)NC[C@@H](C)[C@H](O)[C@]1(C)O` (stereo partly drawn) [syzx-67], the MIC in assay [1] was at most 0.25 µg/mL; in assay [2], 0.5 µg/mL (≈ 0.581 µM); in the assay with Haemophilus parasuis, at most 0.25 µg/mL; in assay [3] it was at most 0.25 µg/mL; in assay [4], at most 0.25 µg/mL. For the same compound, the responders at 5 mg/kg in assay [5] is 70%.
In the case of `CCCCCNC[C@]1(O)[C@H](C)OC(O[C@@H]2[C@@H](C)[C@@H](O[C@@H]3O[C@H](C)C[C@H](N(C)C)[C@H]3O)[C@](C)(O)C[C@@H](C)NC[C@@H](C)[C@H](O)[C@](C)(O)[C@H](CC)OC(=O)[C@@H]2C)C[C@@]1(C)OC` (stereo partly drawn) [syzx-47, (2R,3S,4R,5S,8R,10R,11R,12S,13S,14R)-13-[(2,6-dideoxy-3-C-methyl-3-O-methyl-4-C-[[n-pentyl-amino]-methyl]-α-L-ribopyranosyl)oxy]-2-ethyl-3,4,10-trihydroxy-3,5,8,10,12,14-hexamethyl-11-[[3,4,6-trideoxy-3-(dimethylamino)-β-D-xylo-hexopyranosy]oxy]-1-oxa-7-azacyclopentadecan-15-one], the MIC is 1 µg/mL (≈ 1.2 µM) in assay [1]; 0.5 µg/mL (≈ 0.599 µM) in assay [2]; 0.5 µg/mL (≈ 0.599 µM) in the assay on Haemophilus parasuis; at most 0.25 µg/mL in assay [3]; at most 0.25 µg/mL in assay [4]. The responders at 5 mg/kg in assay [5] was determined as 90%.
As for `CC[C@@H]1OC(=O)[C@H](C)[C@H](OC2C[C@@](C)(OC)[C@](O)(CNC(C)C)[C@H](C)O2)[C@@H](C)[C@@H](O[C@@H]2O[C@H](C)C[C@H](N(C)C)[C@H]2O)[C@](C)(O)C[C@@H](C)NC[C@@H](C)[C@H](O)[C@]1(C)O` (stereo partly drawn) [syzx-11], the MIC in assay [1] was at most 0.25 µg/mL; in assay [2], 0.5 µg/mL (≈ 0.62 µM); in the assay on Haemophilus parasuis it was 0.5 µg/mL (≈ 0.62 µM); in assay [3], at most 0.25 µg/mL; in assay [4], at most 0.25 µg/mL. Also, the responders at 5 mg/kg in assay [5] amounted to 70%.
In the case of `CC[C@@H]1OC(=O)[C@H](C)[C@H](OC2C[C@@](C)(OC)[C@](O)(CNCCOC)[C@H](C)O2)[C@@H](C)[C@@H](O[C@@H]2O[C@H](C)C[C@H](N(C)C)[C@H]2O)[C@](C)(O)C[C@@H](C)NC[C@@H](C)[C@H](O)[C@]1(C)O` (stereo partly drawn) [syzx-58], in assay [2], the “MIC values Actinobacillus pleuropneumoniae CVCC262” value came to 16 ug/mi. Moreover, in assay [5], the responders at 5 mg/kg amounted to 80%.
On to `CCCNC[C@]1(O)[C@H](C)O[C@@H](O[C@H]2[C@H](C)[C@@H](O[C@@H]3O[C@H](C)C[C@H](N(C)C)[C@H]3O)[C@](C)(O)C[C@@H](C)N(CCC)C[C@H](C)[C@@H](O)[C@](C)(O)[C@@H](CC)OC(=O)[C@@H]2C)C[C@@]1(C)OC` [syzx-101, (2R,3S,4R,5S,8R,10R,11R,12S,13S,14R)-13-[(2,6-dideoxy-3-C-methyl-3-O-methyl-4-C-[(n-propyl-amino)methyl]-α-L-ribopyranosyl)oxy]-2-ethyl-3,4,10-trihydroxy-3,5,8,10,12,14-hexamethyl-7-propyl-11-[[3,4,6-trideoxy-3-(dimethylamino)-β-D-xylo-hexopyranosy]oxy]-1-oxa-7-azacyclopentadecan-15-one], for which the Animal survival rate in assay [5] was 90% (9/10).
Regarding `CCCNC[C@]1(O)[C@H](C)O[C@@H](O[C@H]2[C@H](C)[C@@H](O[C@@H]3O[C@H](C)C[C@H](N(C)C)[C@H]3O)[C@](C)(O)C[C@@H](C)NC[C@H](C)[C@@H](O)[C@](C)(O)[C@@H](CC)OC(=O)[C@@H]2C)C[C@@]1(C)OC` [syzx-1], in assay [5], the Animal survival rate was 80% (8/10).
Turning to `CC[C@@H]1OC(=O)[C@H](C)[C@H](OC2C[C@@](C)(OC)[C@](O)(CNCCOC)[C@H](C)O2)[C@@H](C)[C@@H](O[C@@H]2O[C@H](C)C[C@H](N(C)C)[C@H]2O)[C@](C)(O)C[C@@H](C)NC[C@@H](C)[C@H](O)[C@]1(C)O` (stereo partly drawn) [syzx-25, (2R,3S,4R,5S,8R,10R,11R,12S,13S,14R)-13-[(2,6-dideoxy-3-C-methyl-3-O-methyl-4-C-[(2-methoxyethyl)amino-methyl]-α-L-ribopyranosyl)oxy]-2-ethyl-3,4,10-trihydroxy-3,5,8,10,12,14-hexamethyl-11-[[3,4,6-trideoxy-3-(dimethylamino)-β-D-xylo-hexopyranosy]oxy]-1-oxa-7-azacyclopentadecan-15-one], the MIC in assay [1] is at most 0.25 µg/mL; in assay [2], 16 µg/mL (≈ 19.5 µM); in the assay on Haemophilus parasuis, at most 0.25 µg/mL; in assay [3], at most 0.25 µg/mL; in assay [4], at most 0.25 µg/mL.
